# Results as given in patent US20230295152A1 (SENDA BIOSCIENCES, INC., priority 2019, published 2023).
# How the values were obtained:
# [1] = Plasma Protein Binding with Ultracentrifugation Method, mouse; assay type: in vitro ADME; settings: for fraction unbound at 30 min, 1 μM: mouse plasma, read-out: Mouse plasma protein binding (% bound); for fraction unbound at 5.5 h, 1 μM: mouse, plasma, read-out: Plasma Protein Binding PPB (m) % (converted)
# Experimental: The frozen plasma (stored at −80° C.) was thawed in a 37° C. water bath, followed by centrifugation at 3,220 g for 10 minutes to remove clots. The supernatant was removed into a new tube as the spun plasma. The spun plasma was pre-warmed in a 37° C. water bath for 10 minutes. The stock solutions of test compounds were diluted to 200 μM in DMSO, and then spiked into the plasma. Duplicate samples were prepared. The final concentration of compound was 1.0 μM. The final concentration of organic solvent was 0.5%. Warfarin was used as positive control in the assay. 1.0 mL of the spiked plasma was transferred to a new balance ultracentrifuge tube. Samples were incubated at 37° C., 5% CO2 for 30 minutes. After incubation, the balance ultracentrifuge tubes were centrifuged at 600,000 g for 5.5 hours at 37° C. After centrifugation, 50 μL solution was removed from the center of the ultracentrifuge tubes as the post-ultracentrifugation samples, followed by the addition of 50 μL blank plasma and 400 μL quench solution (acetonitrile containing internal standards (IS, 100 nM Alprazolam, 500 nM Labetalol and 2 μM Ketoprofen)) to precipitate protein and release compounds. Samples were vortexed for 2 minutes, followed by centrifugation at 20,000 g for 15 minutes at room temperature. The supernatant was diluted with ultrapure water and then used for LC-MS/MS analysis. Stability samples was prepared by transferring 50 μL of the spiked plasma to 0.6 mL tubes and incubated at 37° C., 5% CO2 for 0.5 and 6 hours. After incubation, 50 μL PBS (100 mM, pH7.4) and 400 μL quench solution were added to the stability samples. And then stability samples were treated the same way as the post-ultracentrifugation samples. The supernatant was diluted with ultrapure water and then used for LC-MS/MS analysis. 0.5 hour time point samples were also used as no-spun controls. Time 0 samples were prepared by transferring 50 μL spiked plasma to 0.6 mL tubes containing 50 μL PBS, followed by the addition of 400 μL quench solution to precipitate protein and release compound. And then these samples were treated the same way as the post-ultracentrifugation samples. The supernatant was diluted with ultrapure water and then used for LC-MS/MS analysis.
# Data Analysis: All calculations were carried out using Microsoft Excel. The concentrations of test compound in plasma samples and post-ultracentrifugation plasma was determined from peak areas. The percentages of test compound bound was calculated as follows: […]
# “+++” indicates a % bound value less than 50, “++” indicates a % bound value between 50 and 75, and “+” indicates a % bound value above 75.
# [2] = target: T1, hERG channels (Homo sapiens, UniProt Q12809); assay: hERG Inhibition Assay, patch clamp in hERG stably expressed HEK 293 cell line; assay type: cell-based; settings: read-out: hERG channel: IC50
# T1 construct: host or cells: HEK 293
# T1 sequence (Q12809 whole entry): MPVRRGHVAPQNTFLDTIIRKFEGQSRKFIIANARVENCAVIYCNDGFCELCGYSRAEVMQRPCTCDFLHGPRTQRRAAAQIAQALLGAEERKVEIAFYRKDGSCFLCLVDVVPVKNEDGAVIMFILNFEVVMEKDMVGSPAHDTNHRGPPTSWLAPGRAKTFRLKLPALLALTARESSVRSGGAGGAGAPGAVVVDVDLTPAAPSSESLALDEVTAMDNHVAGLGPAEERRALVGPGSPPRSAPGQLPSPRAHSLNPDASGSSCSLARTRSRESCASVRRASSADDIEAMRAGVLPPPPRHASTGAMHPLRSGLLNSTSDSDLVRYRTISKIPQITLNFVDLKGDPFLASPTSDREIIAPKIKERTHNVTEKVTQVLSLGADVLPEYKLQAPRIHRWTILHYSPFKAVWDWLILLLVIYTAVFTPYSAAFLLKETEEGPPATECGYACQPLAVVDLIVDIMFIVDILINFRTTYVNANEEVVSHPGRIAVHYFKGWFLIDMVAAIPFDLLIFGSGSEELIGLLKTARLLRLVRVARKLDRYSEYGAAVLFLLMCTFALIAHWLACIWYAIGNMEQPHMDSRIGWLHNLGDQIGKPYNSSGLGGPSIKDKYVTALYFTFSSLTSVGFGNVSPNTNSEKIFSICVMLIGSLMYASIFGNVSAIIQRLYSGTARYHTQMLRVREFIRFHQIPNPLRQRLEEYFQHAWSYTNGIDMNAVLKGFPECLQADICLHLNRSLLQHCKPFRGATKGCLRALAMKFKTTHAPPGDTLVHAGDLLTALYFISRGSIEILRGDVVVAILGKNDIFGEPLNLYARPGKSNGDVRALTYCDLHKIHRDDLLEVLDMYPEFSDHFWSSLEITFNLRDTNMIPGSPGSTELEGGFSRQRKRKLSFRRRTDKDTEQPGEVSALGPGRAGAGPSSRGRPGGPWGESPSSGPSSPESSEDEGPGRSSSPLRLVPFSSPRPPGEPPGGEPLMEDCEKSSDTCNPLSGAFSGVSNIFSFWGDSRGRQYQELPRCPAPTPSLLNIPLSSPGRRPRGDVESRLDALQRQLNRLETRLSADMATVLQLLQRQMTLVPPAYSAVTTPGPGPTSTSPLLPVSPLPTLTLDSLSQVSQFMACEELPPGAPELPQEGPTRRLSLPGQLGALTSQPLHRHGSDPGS
# Experimental: hERG stably expressed HEK 293 cell line (Cat #K1236) was purchased from Invitrogen. The cells are cultured in 85% DMEM, 10% dialyzed FBS, 0.1 mM NEAA, 25 mM HEPES, 100 U/mL Penicillin-Streptomycin and 5 μg/mL Blasticidin and 400 μg/mL Geneticin. Cells are split using TrypLE™ Express about three times a week and maintained between ˜40% to ˜80% confluence. Before the assay, the cells were onto the coverslips at 5×10^5 cells/per 6 cm cell culture dish and induced with doxycycline at 1 μg/mL for 48 hours.
# External solution (in mM): 132 NaCl, 4 KCl, 3 CaCl2), 0.5 MgCl2, 11.1 glucose, and 10 HEPES (pH adjusted to 7.35 with NaOH). Internal solution (in mM): 140 KCl, 2 MgCl2, 10 EGTA, 10 HEPES and 5 MgATP (pH adjusted to 7.35 with KOH). Working solution preparation for test compound: test compounds were initially prepared in DMSO with final concentration of 10 mM as stock solution. Stock solution of each compound was serial-diluted by ratio of 1:3 with DMSO to prepare additional 3 intermediate solutions including 3.33, 1.11 and 0.37 mM.
# Before performing the hERG assay, the working solutions were prepared by dilution of 10, 3.33, 1.11, and 0.37 mM intermediate solutions in 1000 folds using extracellular solution, while 30 μM working solution was prepared by 333.333-folds dilution of 10 mM DMSO stock. so that the final concentration of working solution was 30, 10, 3.33, 1.11 and 0.37 μM. The final DMSO concentration in working solutions was maintained in range of 0.1-0.3% (v/v).
# Experimental procedure: the coverslip was removed from the cell culture dish and placed it on the microscope stage in bath chamber. A desirable cell was located using the ×10 objective. The tip of the electrode was located under the microscope using the ×10 objective by focusing above the plane of the cells. Once the tip was in focus, the electrode was advanced downwards towards the cell using the coarse controls of the manipulator, while simultaneously moving the objective to keep the tip in focus. When directly over the cell, the fine controls of the manipulator were used to approach the surface of the cell in small steps, by using the ×40 objective. Gentle suction was applied through the side-port of the electrode holder to form a gigaohm seal.
# Cfast was used to remove the capacity current that is in coincidence with the voltage step. The whole cell configuration was obtained by applying repetitive, brief, strong suction until the membrane patch has ruptured. membrane potential was set to −60 mV at this point to ensure that hERG channels were not open. The spikes of capacity current was then cancelled using the Cslow on the amplifier.
# Holding potential was set to −90 mV for 500 ms; current was recorder at 20 kHz and filtered at 10 kHz. Leaking current was tested at −80 mV for 500 ms.
# The hERG current was elicited by depolarizing at +30 mV for 4.8 seconds and then the voltage was taken back to −50 mV for 5.2 seconds to remove the inactivation and observe the deactivating tail current. The maximum amount of tail current size was used to determine hERG current amplitude. Current was recorded for 120 seconds to assess current stability. Only stable cells with recording parameters above threshold were proceeded with further drug administrations. Vehicle control was applied to the cells to establish the baseline. […] For dose response testing, 5 doses of test compound was applied to the cells cumulatively from low to high concentrations. In order to ensure the good performance of cultured cells and operations, the positive control, Dofetilide, with 5 doses was also used to test the same batch of cells.
# The following criteria were used to determine data acceptability: initial seal resistance>1 GΩ; leak currents<50% of the control peak tail currents at any time; the peak tail amplitude>300 pA; membrane resistance Rm>500 MΩ; access resistance (Ra)<15 MΩ; apparent run-down of peak current<2.5% per min. […]
"fraction unbound at 30 min, 1 μM [1]",SMILES,IC50 [2] [µM],"fraction unbound at 5.5 h, 1 μM [1]"
< 0.25,C[C@@H](CO)n1cnc2c(-c3cnn(C)c3)nc(-c3ccc(C(F)(F)F)nc3)cc2c1=O [Compound 68],> 30,–
< 0.25,O=c1c2cc(-c3ccc(C(F)(F)F)nc3)nc(-c3cccnc3)c2ncn1[C@@H]1COC[C@H]1O [Compound 79],> 30,–
–,C[C@@H](CO)n1cnc2c(-c3cccnc3)nc(-c3ccc(C4CC4)nc3)cc2c1=O [Compound 74],4.84,–
< 0.25,CC(C)(O)Cn1cnc2c(-c3cccnc3)nc(-c3ccc(Cl)cc3)cc2c1=O [Compound 18],5.28,–
< 0.25,CC(C)(O)Cn1cnc2c(-c3cccnc3)nc(-c3ccc(C(F)(F)F)cn3)cc2c1=O [Compound 105],11.8,–
< 0.25,CC(C)(O)Cn1cnc2c(-c3cccnc3)nc(-c3ccc(C(F)(F)F)cc3)cc2c1=O [Compound 16],4.31,–
< 0.25,"Cc1ccc(-c2cc3c(=O)n([C@@H](C)CO)cnc3c(-c3cccnc3)n2)cc1 [Compound 17, (S)-3-(1-hydroxypropan-2-yl)-8-(pyridin-3-yl)-6-(p-tolyl)pyrido[3,4-d]pyrimidin-4(3H)-one]",–,–
< 0.25,Cn1cc(-c2nc(-c3ccc(Cl)cc3)cc3c(=O)n(CC(C)(C)O)cnc23)cn1 [Compound 21],–,–
–,C[C@@H](CO)n1cnc2c(-c3cnn(C)c3)nc(-c3ccc(Cl)cc3)cc2c1=O [Compound 27],> 10,–
< 0.25,"Cn1cc(-c2nc(-c3ccc(C(F)(F)F)cn3)cc3c(=O)n(CC(C)(C)O)cnc23)cn1 [Compound 103, 3-(2-hydroxy-2-methylpropyl)-8-(1-methyl-1H-pyrazol-4-yl)-6-(5-(trifluoromethyl)pyridin-2-yl)pyrido[3,4-d]pyrimidin-4(3H)-one]",> 10,–
< 0.25,C[C@@H](CO)n1cnc2c(-c3cccnc3)nc(-c3ccc(C(F)(F)F)nc3)cc2c1=O [Compound 12],> 10,–
–,"CC(C)(O)Cn1cnc2c(-n3ccnc3)nc(-c3ccc(C(F)(F)F)cn3)cc2c1=O [Compound 160, 3-(2-hydroxy-2-methylpropyl)-8-(1H-imidazol-1-yl)-6-(5-(trifluoromethyl)pyridin-2-yl)pyrido[3,4-d]pyrimidin-4(3H)-one]",11.5,–
< 0.25,C[C@@H](CO)n1cnc2c(-c3cccnc3)nc(-c3ccc(OC(F)(F)F)cc3)cc2c1=O [Compound 22],–,–
< 0.25,Cn1cc(-c2nc(-c3ccc(C(F)(F)F)nc3)cc3c(=O)n(CC(C)(C)O)cnc23)cn1 [Compound 60],> 30,–

SMILES,"fraction unbound at 30 min, 1 μM [1]",IC50 [2] [µM],"fraction unbound at 5.5 h, 1 μM [1]"
C[C@H](n1cnc2c(-c3cnn(C)c3)nc(-c3ccc(Cl)cc3)cc2c1=O)C(C)(C)O [Compound 30],< 0.25,> 30,–
"O=c1c2cc(-c3ccc(Cl)cc3)nc(-c3cccnc3)c2ncn1[C@H]1COC[C@@H]1O [Compound 125, 6-(4-chlorophenyl)-3-((3S,4R)-4-hydroxytetrahydrofuran-3-yl)-8-(pyridin-3-yl)pyrido[3,4-d]pyrimidin-4(3H)-one]",< 0.25,7.67,–
C[C@@H](CO)n1cnc2c(-c3cccc(F)c3)nc(-c3ccc(Cl)cc3)cc2c1=O [Compound 7],< 0.25,> 30,–
"C[C@@H](CO)n1cnc2c(-c3cccnc3)nc(-c3ccc(C(F)(F)F)cn3)cc2c1=O [Compound 46, (S)-3-(1-hydroxypropan-2-yl)-8-(pyridin-3-yl)-6-(5-(trifluoromethyl)pyridin-2-yl)pyrido[3,4-d]pyrimidin-4(3H)-one]",< 0.25,8.63,0.075
CC(C)(O)Cn1cnc2c(-c3cccnc3)nc(-c3ccc(C(F)(F)F)nc3)cc2c1=O [Compound 9],< 0.25,12.1,0.104
